Like-named read-outs stand apart in the source and are kept apart here.
Assays:
[1] = target: protein kinases (human kinome) (Homo sapiens, UniProt P51451); format: cell-based; details: for logFC BLK: BLK (P51451), direction down; for logFC of BLK (P51451): down
[2] = target: protein kinases (human kinome) (Homo sapiens, UniProt P30291); format: cell-based; details: for logFC of WEE1: WEE1 P30291-1
[3] = target: T1, protein kinases (human kinome) (Homo sapiens, UniProt Q9NYY8); format: cell-based; details: Experiment wp081; direction down
T1 sequence (Q9NYY8 1-710): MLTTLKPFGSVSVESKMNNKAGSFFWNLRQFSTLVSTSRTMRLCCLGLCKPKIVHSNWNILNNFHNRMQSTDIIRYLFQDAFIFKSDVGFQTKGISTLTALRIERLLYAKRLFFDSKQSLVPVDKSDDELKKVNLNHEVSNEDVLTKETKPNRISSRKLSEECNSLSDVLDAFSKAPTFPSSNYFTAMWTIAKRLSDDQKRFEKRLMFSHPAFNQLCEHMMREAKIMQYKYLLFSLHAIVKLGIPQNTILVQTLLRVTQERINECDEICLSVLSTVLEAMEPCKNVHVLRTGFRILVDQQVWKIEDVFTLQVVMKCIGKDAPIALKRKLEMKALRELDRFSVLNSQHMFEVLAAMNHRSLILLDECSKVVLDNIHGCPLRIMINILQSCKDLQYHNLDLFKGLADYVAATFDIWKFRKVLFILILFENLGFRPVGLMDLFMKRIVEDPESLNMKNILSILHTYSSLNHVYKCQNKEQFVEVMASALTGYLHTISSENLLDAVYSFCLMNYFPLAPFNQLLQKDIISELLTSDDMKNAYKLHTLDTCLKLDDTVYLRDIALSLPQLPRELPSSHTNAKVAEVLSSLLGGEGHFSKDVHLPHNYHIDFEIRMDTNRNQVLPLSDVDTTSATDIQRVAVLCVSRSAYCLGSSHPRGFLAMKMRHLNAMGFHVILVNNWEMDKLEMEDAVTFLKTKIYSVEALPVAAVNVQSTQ

[4] = system: protein kinases (human kinome); format: cell-based; details: for logFC ABL1: ABL1 (P00519-2); for logFC of SRC: Accession P12931-2; for logFC TNK2 (Q07912-3) / logFC: direction down; for logFC LCK: accession P06239-3; for logFC LCK / logFC LCK (P06239-3): direction of change down; for logFC: TNK2 (Q07912-3)
[5] = target: T2, extended human kinome (kinase-like proteins) (Homo sapiens, UniProt P54886); assay: Whole cell quantitative proteomics: extended kinome hits; details: Accession P54886; experiment wp081
T2 sequence (P54886 1-795): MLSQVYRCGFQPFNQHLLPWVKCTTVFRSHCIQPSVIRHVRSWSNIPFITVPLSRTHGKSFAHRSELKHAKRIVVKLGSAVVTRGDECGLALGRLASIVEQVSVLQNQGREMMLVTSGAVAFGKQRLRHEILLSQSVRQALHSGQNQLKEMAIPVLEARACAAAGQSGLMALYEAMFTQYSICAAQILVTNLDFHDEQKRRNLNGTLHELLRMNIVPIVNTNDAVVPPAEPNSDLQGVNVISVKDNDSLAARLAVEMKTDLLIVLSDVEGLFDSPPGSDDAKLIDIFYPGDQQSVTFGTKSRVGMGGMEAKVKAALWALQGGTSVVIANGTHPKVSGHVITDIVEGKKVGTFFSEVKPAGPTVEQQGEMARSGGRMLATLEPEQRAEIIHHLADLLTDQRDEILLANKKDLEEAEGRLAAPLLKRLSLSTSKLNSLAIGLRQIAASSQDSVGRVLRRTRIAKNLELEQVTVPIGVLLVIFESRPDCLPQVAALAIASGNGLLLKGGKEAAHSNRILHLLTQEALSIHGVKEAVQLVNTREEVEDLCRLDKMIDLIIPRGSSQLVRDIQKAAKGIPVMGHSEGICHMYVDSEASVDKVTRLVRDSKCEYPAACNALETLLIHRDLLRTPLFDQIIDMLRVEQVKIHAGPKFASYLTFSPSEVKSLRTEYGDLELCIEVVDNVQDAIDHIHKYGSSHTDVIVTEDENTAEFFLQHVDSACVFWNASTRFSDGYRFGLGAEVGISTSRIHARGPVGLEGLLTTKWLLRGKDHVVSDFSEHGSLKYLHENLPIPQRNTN
Protocol: Whole cell multiplexed quantitative proteomics was employed to measure changes in abundance of the proteome in response to treatment with each of the kinase degrader molecules relative to DMSO (Table 1, Appendix I).
Cells were treated with DMSO (biological triplicate) or degrader at indicated dose and time and cells were harvested by centrifugation. […] Precipitated protein was resuspended in 4 M Urea, 50 mM HEPES pH 7.4, followed by dilution to 1 M urea with the addition of 200 mM EPPS, pH 8. Proteins were first digested with LysC (1:50: enzyme:protein) for 12 hours at room temperature. The LysC digestion was diluted to 0.5 M Urea with 200 mM EPPS pH 8 followed by digestion with trypsin (1:50; enzyme:protein) for 6 hours at 37° C. Tandem mass tag (TMT) reagents (Thermo Fisher Scientific) were dissolved in anhydrous acetonitrile (ACN) according to manufacturer's instructions. […] The 10, 11, or 16-plex labeling reactions were performed for 1.5 hours at room temperature and the reaction quenched by the addition of hydroxylamine to a final concentration of 0.3% for 15 minutes at room temperature. The sample channels were combined at a 1:1 ratio, desalted using C18 solid phase extraction cartridges (Waters®) and analyzed by LC-MS for channel ratio comparison. Samples were then combined using the adjusted volumes determined in the channel ratio analysis and dried down in a speed vacuum. The combined sample was then resuspended in 1% formic acid, and acidified (pH 2-3) before being subjected to desalting with C18 SPE (Sep-Pak®, Waters®). Samples were then offline fractionated into 96 fractions by high pH reverse-phase HPLC (Agilent® LC1260) through an aeris peptide xb-c18 column (Phenomenex®) with mobile phase A containing 5% acetonitrile and 10 mM NH4HCO3 in LC-MS grade H2O, and mobile phase B containing 90% acetonitrile and 10 mM NH4HCO3 in LC-MS grade H2O (both pH 8.0). The 96 resulting fractions were then pooled in a non-continuous manner into 24 fractions and desalted using C18 solid phase extraction plates (SOLA®, Thermo Fisher Scientific) followed by subsequent mass spectrometry analysis.
Data were collected using an Orbitrap Fusion™ Lumos™ mass spectrometer (Thermo Fisher Scientific, San Jose, CA, USA) coupled with a Proxeon EASY-nLC™ 1200 LC pump (Thermo Fisher Scientific) or an Orbitrap Eclipse™ Tribrid™ mass spectrometer (Thermo Fisher Scientific, San Jose, CA, USA) coupled with an UltiMate™ 3000 RSLCnano System. Peptides were separated on an EasySpray™ ES803a/ES803a.rev2 75 μm inner diameter microcapillary column (ThermoFisher Scientific).
Data dependent MS2 spectra were acquired in the ion trap with a normalized collision energy (NCE) set at 35%, AGC target set to 1.8×10^4 and a maximum injection time of 120 ms. MS3 scans were acquired in the Orbitrap with HCD collision energy set to 55%. AGC target set to 2×10^5, maximum injection time of 150 ms, resolution at 50,000 and with a maximum synchronous precursor selection (SPS) precursors set to 10.
Proteome Discoverer™ 2.1, 2.2 or 2.4 (Thermo Fisher Scientific) was used for .RAW file processing and controlling peptide and protein level false discovery rates, assembling proteins from peptides, and protein quantification from peptides.

protein kinases (human kinome) (Homo sapiens, UniProt P51451), sequence (P51451 whole entry): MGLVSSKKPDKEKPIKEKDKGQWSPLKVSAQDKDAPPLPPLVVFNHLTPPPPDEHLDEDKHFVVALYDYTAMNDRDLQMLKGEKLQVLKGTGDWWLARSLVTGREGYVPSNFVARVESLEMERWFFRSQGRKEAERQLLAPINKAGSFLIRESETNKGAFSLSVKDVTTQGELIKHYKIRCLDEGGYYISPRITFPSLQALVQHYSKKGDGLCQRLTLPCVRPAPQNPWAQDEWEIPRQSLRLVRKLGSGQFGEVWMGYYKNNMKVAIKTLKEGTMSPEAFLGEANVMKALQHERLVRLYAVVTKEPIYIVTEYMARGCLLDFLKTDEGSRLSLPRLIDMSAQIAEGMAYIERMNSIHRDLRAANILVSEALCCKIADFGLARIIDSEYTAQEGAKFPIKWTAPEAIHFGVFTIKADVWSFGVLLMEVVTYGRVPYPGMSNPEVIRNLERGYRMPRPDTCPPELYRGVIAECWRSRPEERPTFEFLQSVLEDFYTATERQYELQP
protein kinases (human kinome) (Homo sapiens, UniProt P30291), sequence (P30291 whole entry): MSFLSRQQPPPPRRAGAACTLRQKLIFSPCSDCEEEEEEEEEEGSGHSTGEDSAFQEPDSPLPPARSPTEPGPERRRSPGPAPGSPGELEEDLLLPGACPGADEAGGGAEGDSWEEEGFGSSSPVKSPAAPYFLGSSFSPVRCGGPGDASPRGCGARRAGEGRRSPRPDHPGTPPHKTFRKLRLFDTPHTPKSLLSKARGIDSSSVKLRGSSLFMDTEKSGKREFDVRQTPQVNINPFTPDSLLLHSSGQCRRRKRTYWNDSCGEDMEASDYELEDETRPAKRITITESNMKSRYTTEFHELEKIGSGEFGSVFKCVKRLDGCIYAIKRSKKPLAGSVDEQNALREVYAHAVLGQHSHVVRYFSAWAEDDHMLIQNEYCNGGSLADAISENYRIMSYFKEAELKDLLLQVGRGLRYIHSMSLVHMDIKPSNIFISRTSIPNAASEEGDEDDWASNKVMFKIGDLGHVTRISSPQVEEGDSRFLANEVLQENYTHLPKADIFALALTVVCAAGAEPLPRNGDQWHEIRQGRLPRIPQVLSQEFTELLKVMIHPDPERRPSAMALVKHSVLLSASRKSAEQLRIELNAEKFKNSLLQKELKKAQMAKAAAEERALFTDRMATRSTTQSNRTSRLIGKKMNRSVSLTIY

Structure (SMILES): Cn1c(=O)c(-c2c(Cl)cccc2Cl)cc2cnc(Nc3ccc(OCCNC(=O)CCCCCCNC(=O)COc4cccc5c4C(=O)N(C4CCC(=O)NC4=O)C5=O)cc3)nc21 (stereo not drawn) [SB1.G.192.1]
- logFC BLK ([1]; experiment wp071): −2.399
- logFC BLK ([1]; experiment wp081): −2.013
- logFC BLK ([1]; experiment wp131): −2.465
- logFC of BLK (P51451) ([1]; Experiment wp071): −2.399
- logFC of BLK (P51451) ([1]; Experiment wp081): −2.013
- logFC of BLK (P51451) ([1]; Experiment wp131): −2.465
- logFC of WEE1 ([2]; experiment wp081): −1.764
- logFC of WEE1 ([2]; experiment wp131): −1.647
- logFC WEE1 (P30291-1) ([2]; experiment wp071): −2.367
- logFC WEE1 (P30291-1) ([2]; experiment wp081): −1.764
- logFC WEE1 (P30291-1) ([2]; experiment wp131): −1.647
- logFC FASTKD2 (Q9NYY8) [3]: −0.3577
- logFC ABL1 ([4]; experiment wp071): −1.417
- logFC ABL1 ([4]; experiment wp081): −1.189
- logFC FYN ([4]; Accession P06241-2, experiment wp071): −1.595
- logFC FYN ([4]; Accession P06241-2, experiment wp081): −0.9994
- logFC FYN ([4]; Accession P06241-2, experiment wp131): −0.9918
- logFC of SRC ([4]; experiment wp071): −2.578
- logFC of SRC ([4]; experiment wp081): −2.113
- logFC of SRC ([4]; experiment wp131): −2.127
- logFC TNK2 (Q07912-3) ([4]; Experiment wp071): −1.728
- logFC TNK2 (Q07912-3) ([4]; Experiment wp081): −0.9024
- logFC FYN ([4]; FYN P06241-2, experiment wp071): −1.595
- logFC FYN ([4]; FYN P06241-2, experiment wp081): −0.9994
- logFC FYN ([4]; FYN P06241-2, experiment wp131): −0.9918
- logFC LCK ([4]; experiment wp071): −1.767
- logFC LCK ([4]; experiment wp131): −1.701
- logFC ([4]; experiment wp071): −1.728
- logFC ([4]; experiment wp081): −0.9024
- logFC ABL1 (P00519-2) ([4]; experiment wp071): −1.417
- logFC LCK (P06239-3) ([4]; experiment wp071): −1.767
- logFC ABL1 (P00519-2) ([4]; experiment wp081): −1.189
- logFC ABL2 (P42684-5) ([4]; experiment wp131): −2.8
- logFC of ABL2 (P42684-5) ([4]; experiment wp131): −2.8
- logFC LCK (P06239-3) ([4]; experiment wp131): −1.701
- logFC ALDH18A1 [5]: −0.39

Source: patent publication US20240269139A1, “COMPOUNDS FOR TARGETED PROTEIN DEGRADATION OF KINASES” (DANA-FARBER CANCER INSTITUTE, INC., priority 2020, published 2024)
